# Data from ChEMBL document CHEMBL1142859, “Synthesis and characterization of a platinum(II) complex tethered to a ligand of the peripheral benzodiazepine receptor” (J Med Chem, 2007).
# Target: Translocator protein (Rattus norvegicus, UniProt P16257)
# Test: Displacement of [3H]PK 11195 from PBR in Sprague-Dawley rat cerebral cortex
# Type: tissue-based
# Chain of Translocator protein (P16257 whole entry, looked up): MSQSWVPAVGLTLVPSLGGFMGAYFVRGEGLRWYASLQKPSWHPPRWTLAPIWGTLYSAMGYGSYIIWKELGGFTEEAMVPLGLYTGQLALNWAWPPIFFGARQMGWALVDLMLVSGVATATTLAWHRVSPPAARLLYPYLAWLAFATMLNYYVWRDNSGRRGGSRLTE
structure (smiles),measurement,value
CCCN(CCC)C(=O)Cc1c(-c2nccs2)nc2c(Cl)cc(Cl)cn12,IC50,2.81 nM
